Test results taken from PubChem BioAssay AID1918995 (Molecular Pharmacology Branch, DTP, NCI, 2023).
pIC50: −log10 of the molar value.

Tested on: 324938-238-R-J1-PDC complex spheroid growth, % test/control
Assay: Anticancer human tumor 324938-238-R-J1-PDC patient-derived bladder carcinoma cell line growth inhibition [AhR]
Settings: for pIC50: curve of first compound; for viability, T/C: stronger effect = lower value
Method in brief: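 Complex tumor spheroids co-cultured with HUVEC and human MSC stroma; AhR antagonists tested in combination with standard-of-care and investigational agents. Top concentration at or near clinical Cmax (else 10 microM), half-log dilutions; growth expressed as percent test/control.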

[1] = second compound 0.1 µM, first compound 0.0316 µM
[2] = second compound 0.1 µM, first compound 0.1 µM
[3] = second compound 0.316 µM, first compound 0.0316 µM
[4] = second compound 0.316 µM, first compound 0.1 µM
[5] = second compound 1 µM, first compound 0.0316 µM
[6] = second compound 1 µM, first compound 0.1 µM
[7] = second compound 3.16 µM, first compound 0.0316 µM
[8] = second compound 3.16 µM, first compound 0.1 µM
[9] = second compound 10 µM, first compound 0.0316 µM
[10] = second compound 10 µM, first compound 0.1 µM
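Further: spheroids exposed to agents for seven days before viability read.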

SMILES: Cn1ncnc1C1c2n[nH]c(=O)c3cc(F)cc(c23)NC1c1ccc(F)cc1 (stereo not given) + Cc1cncc(-c2nc(NCCc3c[nH]c4ccccc34)c3ncn(C(C)C)c3n2)c1
- pIC50 (second compound 0.1 µM): < 7.00
- pIC50 (second compound 0.316 µM): < 7.00
- pIC50 (second compound 1 µM): < 7.00
- pIC50 (second compound 3.16 µM): < 7.00
- pIC50 (second compound 10 µM): > 9.50
- viability, T/C (second compound 0.1 µM, first compound 0.000316 µM): 92.1%
- viability, T/C (second compound 0.1 µM, first compound 0.001 µM): 110%
- viability, T/C (second compound 0.1 µM, first compound 0.00316 µM): 105%
- viability, T/C (second compound 0.1 µM, first compound 0.01 µM): 94.5%
- viability, T/C [1]: 120%
- viability, T/C [2]: 86.2%
- viability, T/C (second compound 0.316 µM, first compound 0.000316 µM): 108%
- viability, T/C (second compound 0.316 µM, first compound 0.001 µM): 113%
- viability, T/C (second compound 0.316 µM, first compound 0.00316 µM): 138%
- viability, T/C (second compound 0.316 µM, first compound 0.01 µM): 81.6%
- viability, T/C [3]: 112%
- viability, T/C [4]: 105%
- viability, T/C (second compound 1 µM, first compound 0.000316 µM): 78.9%
- viability, T/C (second compound 1 µM, first compound 0.001 µM): 142%
- viability, T/C (second compound 1 µM, first compound 0.00316 µM): 116%
- viability, T/C (second compound 1 µM, first compound 0.01 µM): 112%
- viability, T/C [5]: 106%
- viability, T/C [6]: 134%
- viability, T/C (second compound 3.16 µM, first compound 0.000316 µM): 93.7%
- viability, T/C (second compound 3.16 µM, first compound 0.001 µM): 112%
- viability, T/C (second compound 3.16 µM, first compound 0.00316 µM): 92.6%
- viability, T/C (second compound 3.16 µM, first compound 0.01 µM): 98.1%
- viability, T/C [7]: 94.2%
- viability, T/C [8]: 99.3%
- viability, T/C (second compound 10 µM, first compound 0.000316 µM): 9.29%
- viability, T/C (second compound 10 µM, first compound 0.001 µM): 12.6%
- viability, T/C (second compound 10 µM, first compound 0.00316 µM): 9.9%
- viability, T/C (second compound 10 µM, first compound 0.01 µM): 13%
- viability, T/C [9]: 9.12%
- viability, T/C [10]: 22.1%

SMILES: CC(C)CC(NC(=O)C(Cc1ccccc1)NC(=O)c1cnccn1)B(O)O (stereo not given) + CC(CO)NC(=O)c1cc(-c2ccc(Cl)cc2)nn(-c2cnn(C)c2)c1=O
- pIC50 (second compound 0.1 µM): 8.75
- pIC50 (second compound 0.316 µM): 8.77
- pIC50 (second compound 1 µM): 8.76
- pIC50 (second compound 3.16 µM): 8.85
- pIC50 (second compound 10 µM): 8.86
- viability, T/C (second compound 0.1 µM, first compound 0.000949 µM): 89%
- viability, T/C (second compound 0.1 µM, first compound 0.003 µM): 18.1%
- viability, T/C (second compound 0.1 µM, first compound 0.00949 µM): 0.1%
- viability, T/C (second compound 0.1 µM, first compound 0.03 µM): 0.06%
- viability, T/C (second compound 0.1 µM, first compound 0.0949 µM): 0.07%
- viability, T/C (second compound 0.1 µM, first compound 0.3 µM): 0.21%
- viability, T/C (second compound 0.316 µM, first compound 0.000949 µM): 85.8%
- viability, T/C (second compound 0.316 µM, first compound 0.003 µM): 14.3%
- viability, T/C (second compound 0.316 µM, first compound 0.00949 µM): 0.09%
- viability, T/C (second compound 0.316 µM, first compound 0.03 µM): 0.06%
- viability, T/C (second compound 0.316 µM, first compound 0.0949 µM): 0.07%
- viability, T/C (second compound 0.316 µM, first compound 0.3 µM): 0.16%
- viability, T/C (second compound 1 µM, first compound 0.000949 µM): 86.2%
- viability, T/C (second compound 1 µM, first compound 0.003 µM): 18.1%
- viability, T/C (second compound 1 µM, first compound 0.00949 µM): 0.13%
- viability, T/C (second compound 1 µM, first compound 0.03 µM): 0.12%
- viability, T/C (second compound 1 µM, first compound 0.0949 µM): 0.05%
- viability, T/C (second compound 1 µM, first compound 0.3 µM): 0.17%
- viability, T/C (second compound 3.16 µM, first compound 0.000949 µM): 69.1%
- viability, T/C (second compound 3.16 µM, first compound 0.003 µM): 13.6%
- viability, T/C (second compound 3.16 µM, first compound 0.00949 µM): 0.13%
- viability, T/C (second compound 3.16 µM, first compound 0.03 µM): 0.07%
- viability, T/C (second compound 3.16 µM, first compound 0.0949 µM): 0.07%
- viability, T/C (second compound 3.16 µM, first compound 0.3 µM): 0.17%
- viability, T/C (second compound 10 µM, first compound 0.000949 µM): 67.1%
- viability, T/C (second compound 10 µM, first compound 0.003 µM): 14.8%
- viability, T/C (second compound 10 µM, first compound 0.00949 µM): 0.23%
- viability, T/C (second compound 10 µM, first compound 0.03 µM): 0.2%
- viability, T/C (second compound 10 µM, first compound 0.0949 µM): 0.2%
- viability, T/C (second compound 10 µM, first compound 0.3 µM): 0.32%

SMILES: CC1(C)CCC(CN2CCN(c3ccc(C(=O)NS(=O)(=O)c4ccc(NCC5CCOCC5)c([N+](=O)[O-])c4)c(Oc4cnc5[nH]ccc5c4)c3)CC2)=C(c2ccc(Cl)cc2)C1 + Cc1ccccc1N=Nc1ccc(NC(=O)c2ccnn2C)c(C)c1
- pIC50 (second compound 0.1 µM): 5.02
- pIC50 (second compound 0.316 µM): < 5.00
- pIC50 (second compound 1 µM): 5.06
- pIC50 (second compound 3.16 µM): 5.22
- pIC50 (second compound 10 µM): 5.25
- viability, T/C [1]: 87.7%
- viability, T/C [2]: 92.8%
- viability, T/C (second compound 0.1 µM, first compound 0.316 µM): 93.6%
- viability, T/C (second compound 0.1 µM, first compound 1 µM): 87.8%
- viability, T/C (second compound 0.1 µM, first compound 3.16 µM): 80.7%
- viability, T/C (second compound 0.1 µM, first compound 10 µM): 48.8%
- viability, T/C [3]: 89.4%
- viability, T/C [4]: 90.5%
- viability, T/C (second compound 0.316 µM, first compound 0.316 µM): 88%
- viability, T/C (second compound 0.316 µM, first compound 1 µM): 83.3%
- viability, T/C (second compound 0.316 µM, first compound 3.16 µM): 72%
- viability, T/C (second compound 0.316 µM, first compound 10 µM): 52%
- viability, T/C [5]: 83.5%
- viability, T/C [6]: 85.8%
- viability, T/C (second compound 1 µM, first compound 0.316 µM): 80.7%
- viability, T/C (second compound 1 µM, first compound 1 µM): 71.8%
- viability, T/C (second compound 1 µM, first compound 3.16 µM): 71.1%
- viability, T/C (second compound 1 µM, first compound 10 µM): 46.7%
- viability, T/C [7]: 72.4%
- viability, T/C [8]: 71.8%
- viability, T/C (second compound 3.16 µM, first compound 0.316 µM): 68.9%
- viability, T/C (second compound 3.16 µM, first compound 1 µM): 69%
- viability, T/C (second compound 3.16 µM, first compound 3.16 µM): 61.3%
- viability, T/C (second compound 3.16 µM, first compound 10 µM): 41%
- viability, T/C [9]: 73.8%
- viability, T/C [10]: 70.2%
- viability, T/C (second compound 10 µM, first compound 0.316 µM): 69.6%
- viability, T/C (second compound 10 µM, first compound 1 µM): 67.9%
- viability, T/C (second compound 10 µM, first compound 3.16 µM): 58%
- viability, T/C (second compound 10 µM, first compound 10 µM): 41.9%
